The source made the active and inactive calls. No cut-off for these calls is given here.
How the values were obtained:
[1] = Cytotoxicity against human T24 cells harboring HRAS mutant assessed as reduction of metabolic activity after 72 hrs by resazurin assay; assay type: functional, cell-based; conditions: T-24, 72 h
HEK293 = experiment: Cytotoxicity against HEK293 cells harboring wild type HRAS assessed as reduction of metabolic activity after 72 hrs by resazurin assay; assay type: cell-based; conditions: Homo sapiens, HEK293, 72 h
[2] = Cellular uptake in human T24 cells at 1 to 5 uM after 4 hrs by FACS analysis; assay type: ADME, cell-based; conditions: t-24, 4 h
[3] = Downregulation of p21RAS protein level in human T24 cells at 5 uM after 48 hrs by Western blot analysis; assay type: functional, cell-based; conditions: T-24
T-24 [4] = experiment: Inhibition of HRAS mRNA expression in human T24 cells at 5 uM after 6 to 24 hrs by RT-qPCR analysis; assay type: functional, cell-based
T-24 [5] = experiment: Cytotoxicity against human T24 cells assessed as reduction of colony formation at 1 uM after 7 days by methylene blue staining-based assay; assay type: functional, cell-based
T-24 [6] = experiment: Induction of apoptosis in human T24 cells assessed as PARP-1 cleavage at 2.5 uM measured at 48 hrs by Western blot analysis relative to control; assay type: functional
T-24 [7] = experiment: Induction of apoptosis in human T24 cells assessed as activation of caspase 3/7 at 2.5 to 5 uM measured after 18 to 24 hrs by Apo-ONE assay relative to control; assay type: functional
T-24 [8] = experiment: Induction of apoptosis in human T24 cells at 2.5 uM after 24 hrs by annexin V-FITC/propidium iodide staining-based FACS analysis (13 +/- 5%); assay type: functional
[9] = Cell cycle arrest in human T24 cells assessed as accumulation at G2 phase at 5 uM after 48 to 72 hrs by propidium iodide staining-based FACS analysis; assay type: functional; conditions: T-24
[10] = Cellular uptake in human T24 cells at 5 uM at 4 degC after 4 hrs by FACS analysis; assay type: ADME, cell-based; conditions: t-24, 4 h
[11] = Cellular uptake in human T24 cells at 5 uM at 37 degC after 4 hrs by FACS analysis; assay type: ADME, cell-based; conditions: t-24, 4 h
[12] = Cellular uptake in human T24 cells at 5 uM after 4 hrs by FACS analysis relative to HEK293 cells; assay type: ADME, cell-based; conditions: hek293, 4 h
[13] = Cellular uptake in human T24 cells at 5 uM after 4 hrs by FACS analysis in presence of dynasore; assay type: ADME, cell-based; conditions: t-24, 4 h
[14] = Cellular uptake in cytoplasm of human T24 cells at 5 uM after 4 hrs by confocal microscopic analysis; assay type: ADME, cell-based; conditions: t-24, 4 h
[15] = Cellular uptake in nucleus of human T24 cells at 5 uM after 4 hrs by confocal microscopic analysis; assay type: ADME, cell-based; conditions: t-24, 4 h
[16] = Binding affinity to 5' FAM/3' TAMRA labeled HRAS1 G-quadruplex DNA (unknown origin) by FRET analysis
[17] = Binding affinity to 5' FAM/3' TAMRA labeled HRAS2 G-quadruplex DNA (unknown origin) by FRET analysis
[18] = Binding affinity to 5' FAM/3' TAMRA labeled HRAS1 G-quadruplex DNA (unknown origin) assessed as change in melting temperature by FRET analysis
[19] = Binding affinity to 5' FAM/3' TAMRA labeled HRAS2 G-quadruplex DNA (unknown origin) assessed as change in melting temperature by FRET analysis
[20] = Binding affinity to 5' FAM/3' TAMRA labeled HRAS2 G-quadruplex DNA (unknown origin) assessed as change in melting temperature at 5 equiv of compound by FRET analysis in presence of 10 fold excess duplex DNA (reference value: 68.1 degreeC)
T-24 [21] = experiment: Inhibition of HRAS mRNA expression in human T24 cells assessed as remaining mRNA level at 5 uM after 6 hrs by RT-qPCR analysis relative to beta2-microglobulin mRNA expression; assay type: functional
T-24 [22] = experiment: Inhibition of HRAS mRNA expression in human T24 cells assessed as remaining mRNA level at 5 uM after 24 hrs by RT-qPCR analysis relative to beta2-microglobulin mRNA expression; assay type: functional
[23] = Downregulation of p21RAS protein level in human T24 cells assessed as remaining protein level at 5 uM after 48 hrs by Western blot analysis relative to beta-actin protein expression; assay type: functional, cell-based; conditions: T-24
T-24 [24] = experiment: Induction of reactive oxygen species generation in human T24 cells at 1 to 5 uM after 24 hrs relative to control; assay type: functional, cell-based
[25] = Cell cycle arrest in human T24 cells assessed as accumulation at G2 phase at 5 uM after 48 hrs by propidium iodide staining-based FACS analysis (reference value: 18.5%); assay type: functional; conditions: T-24
[26] = Cell cycle arrest in human T24 cells assessed as accumulation at G1 phase at 5 uM after 48 hrs by propidium iodide staining-based FACS analysis (reference value: 52.4%); assay type: functional; conditions: T-24
[27] = Cell cycle arrest in human T24 cells assessed as accumulation at G2 phase at 5 uM measured at 72 hrs by propidium iodide staining-based FACS analysis (reference value: 17.7%); assay type: functional; conditions: T-24
[28] = Downregulation of cyclin D1 level in human T24 cells assessed as remaining protein level at 2.5 uM after 48 hrs by Western blot analysis; assay type: functional, cell-based; conditions: T-24
[29] = Binding affinity to 5' FAM/3' TAMRA labeled HRAS2 G-quadruplex DNA (unknown origin) assessed as change in melting temperature at 5 equiv of compound (r = 5) by FRET analysis (reference value: 68.1 degreeC)
[30] = Downregulation of p21RAS protein level in human T24 cells assessed as remaining protein level at 2.5 to 5 uM after 48 hrs by Western blot analysis relative to beta-actin protein expression; assay type: functional, cell-based; conditions: T-24
T-24 [31] = experiment: Binding affinity to wild type HRAS G-quadruplex DNA (unknown origin) transfected in human T24 cells assessed as remaining expression ratio of firefly luciferase to renila luciferase reporter gene at 100 to 200 nM pretreated with cells followed by transfection measured after 48 hrs; assay type: cell-based
T-24 [32] = experiment: Binding affinity to mutant HRAS Mut-A plasmid (unknown origin) transfected in human T24 cells at 100 to 200 nM pretreated with cells followed by transfection measured after 48 hrs by dual luciferase reporter gene assay; assay type: cell-based
T-24 [33] = experiment: Binding affinity to mutant HRAS Mut-B plasmid (unknown origin) transfected in human T24 cells at 100 to 200 nM pretreated with cells followed by transfection measured after 48 hrs by dual luciferase reporter gene assay; assay type: cell-based
T-24 [34] = experiment: Antitumor activity against human T24 cells xenografted in nude mouse assessed as tumor growth inhibition at 1.7 mg/kg administered intratumorally on day 1, 8, 15, 22 measured every 2 to 3 days up to 44 days; assay type: functional, organism-based
[35] = Antitumor activity against human T24 cells xenografted in nude mouse assessed as mouse median survival day at 1.7 mg/kg administered intratumorally on day 1, 8, 15, 22 (reference value: 32 days); assay type: functional, T-24
[36] = Antitumor activity against human T24 cells xenografted in nude mouse assessed as increase in mouse median survival day at 1.7 mg/kg administered intratumorally on day 1, 8, 15, 22 relative to control; assay type: functional, T-24
[37] = Binding affinity to 5' FAM/3' TAMRA labeled HRAS2 G-quadruplex DNA (unknown origin) assessed as change in melting temperature at 10 equiv of compound by FRET analysis (reference value: 67.2 degreeC)

Drug uptake [2] | Drug uptake [10] | Drug uptake [11] | fold change (FC) [12] | Drug uptake [14] | Drug uptake [15] | Kd [16] | Kd [17] | ΔTm [18] | ΔTm [19] | Compound | IC50 [1] | IC50 (HEK293) | Activity (T-24 [5]) | Activity (T-24 [6]) | Activity (T-24 [8]) | further results
Active |  |  |  |  |  |  |  |  |  | N=C(N)NCCNc1c2c(c(NCCNC(=N)N)c3sccc13)C(=O)c1ccccc1C2=O | 4400 nM | > 30000 nM | inactive | inactive | 13% | Activity [3]: Active; inhibition (T-24 [4]): inactive; Activity (T-24 [7]): inactive; Activity [9]: inactive
Active |  |  | 2 | Active | Active | 260 nM | 276 nM | 9 °C | 7 °C | N=C(CCl)NCCCNc1c2c(c(NCCCNC(=N)CCl)c3sccc13)C(=O)c1ccccc1C2=O | 6800 nM | 19400 nM |  |  |  | 
Active |  |  | 2 | Active | Active | 231 nM | 215 nM | 9 °C | 7 °C | N=C(CCl)NCCCCNc1c2c(c(NCCCCNC(=N)CCl)c3sccc13)C(=O)c1ccccc1C2=O | 11500 nM | > 30000 nM |  |  |  | 
Active |  |  |  |  |  |  |  |  |  | N=C(N)NCCCCNc1c2c(c(NCCCCNC(=N)N)c3sccc13)C(=O)c1ccccc1C2=O |  | > 30000 nM | inactive | inactive | 13% | Activity [3]: Active; inhibition (T-24 [4]): inactive; Activity [9]: inactive

More lines, now with the values behind:

Compound | Drug uptake [2] | Drug uptake [10] | Drug uptake [11] | fold change (FC) [12] | Drug uptake [14] | Drug uptake [15] | Kd [16] | Kd [17] | ΔTm [18] | ΔTm [19] | IC50 [1] | IC50 (HEK293) | Activity (T-24 [5]) | Activity (T-24 [6]) | Activity (T-24 [8]) | further results
N=C(CCl)NCCCNc1c2c(c(NCCNC(=N)CCl)c3sccc13)C(=O)c1ccccc1C2=O | Active | Not Active | Active | 2 | Active | Active | 178 nM | 168 nM | 9 °C | 7 °C | 3000 nM | 12600 nM | Active | 80% | 81% | Drug uptake [13]: Not Active; Tm [20]: 75.8 °C; Activity (T-24 [21]): 45%; Activity (T-24 [22]): 24%; Activity [23]: 40%; fold change (FC) (T-24 [7]): 15; Activity (T-24 [24]): inactive; Activity [25]: 66%; Activity [26]: 28.9%; Activity [27]: 83%; Activity [28]: < 10%; Tm [29]: 75.8 °C
N=C(CCl)NCCCNc1c2c(c(NCCNC(=N)CCl)c3ccsc13)C(=O)c1ccccc1C2=O | Active | Not Active | Active | 2 | Active | Active | 179 nM | 221 nM | 9 °C | 7 °C | 2900 nM | 10100 nM |  |  |  | 
N=C(CCl)NCCNc1c2c(c(NCCNC(=N)CCl)c3sccc13)C(=O)c1ccccc1C2=O | Active | Not Active | Active | 2 | Active | Active | 611 nM | 317 nM | 9 °C | 7 °C | 2700 nM | 6400 nM | Active | 80% | 88% | Drug uptake [13]: Not Active; Tm [20]: 75.6 °C; Activity [30]: < 4%; Activity (T-24 [21]): 35%; Activity (T-24 [22]): 34%; Activity (T-24 [31]): 40%; Activity (T-24 [32]): inactive; Activity (T-24 [33]): inactive; fold change (FC) (T-24 [7]): 15; Activity (T-24 [24]): inactive; Activity [25]: 72.2%; Activity [26]: 12.2%; Activity [27]: 44.7%; Activity [28]: < 10%; TGI (T-24 [34]): Active; MSD [35]: 54 days; Activity [36]: 70%; Tm [29]: 75.6 °C; Tm [37]: 78.5 °C

— ChEMBL document CHEMBL3585340, “Potent Apoptotic Response Induced by Chloroacetamidine Anthrathiophenediones in Bladder Cancer Cells” (J Med Chem, 2015)
